In patent US20250082773A1, “COMBINATION THERAPY USING EXOSOME SECRETION INHIBITOR AND IMMUNE CHECKPOINT INHIBITOR” (Research & Business Foundation SUNGKYUNKWAN UNIVERSITY, priority 2021, published 2025):

Columns and labels:
CT26 tumor = assay: Tumor growth inhibition test in CT26 tumor-bearing mice; type: in vivo; settings: αPD-1 5 mg/kg i.p. every 3 days x3
Procedure: CT26 cells (2×10^6) were suspended in cold PBS and subcutaneously injected to establish CT26 tumor-bearing mice.
The tumor volume was measured using calipers and calculated for each mouse using the following equation: V=½ab^2 (a is the longest axis and b is the shortest axis). After the treatment schedule, the tumors were excised and weighed.
The tumor volume was measured every day by measuring long-axis and short-axis of the tumor using calipers.

exosomal PD-L1 = assay: Exosomal PD-L1 in plasma of CT26 tumor-bearing mice (ELISA); type: in vivo; settings: SFX 200 mg/kg, αPD-1 5 mg/kg, FIG. 4C
Procedure: To assess PD-L1 on EXOs isolated from mouse plasma, ELISA plates were coated with a monoclonal antibody against PD-L1 (R&D Systems, Minneapolis, MN, USA) overnight at 25° C. Free binding sites were blocked with blocking buffer for 2 h at 25° C. After washing the plates with 0.05% Tween-20 in PBS, EXOs were added to each well and incubated for 2 h at 25° C. […] The plate was incubated for 20 min with a substrate solution composed of H2O2 and tetramethylbenzidine. After the addition of a stop solution containing 2N H2SO4 (R&D Systems, DY994), the plate was immediately read at 450 nm using an xMark™ microplate reader (Bio-Rad).

CT26 cells = assay: Ability of PDC to inhibit exosome secretion in CT26 cells (NTA); type: cell-based, murine; set-up: dose or concentration left out as unconfirmed; settings: FIG. 14
Procedure: To evaluate the ability of PEG-b-Poly(L-lysine-CDM-SFX) to inhibit the secretion of exosomes, CT26 cells, a murine colon cancer cell line, were treated with 100 µM of SFX and the same amount of PDC, exosomes from the supernatant were separated, and secreted exosomes were quantitatively analyzed.
In addition, to evaluate the ability of PEG-SS-AMB to inhibit the secretion of exosomes, CT26 cells, a murine colon cancer cell line, were treated with […] of PEG-SS-AMB, exosomes from the supernatant were separated, and secreted exosomes were quantitatively analyzed.

SMILES: COc1ccccc1Oc1c(NS(=O)(=O)c2ccc(C(C)(C)C)cc2)nc(-c2ncccn2)nc1OCCO [BST, bosentan]
- tumor growth (tumor volume) (CT26 tumor; BST 10 mg/kg orally daily, FIG. 16B): effectively retarded

SMILES: Cc1noc(NS(=O)(=O)c2ccc(N)cc2)c1C [SFX, sulfisoxazole]
- exosomal PD-L1 levels in the plasma (exosomal PD-L1): significantly decreased
- inhibition of exosome secretion compared to the untreated control group (CT26 cells): more than 50%

SMILES: CCCNS(=O)(=O)Nc1ncnc(OCCOc2ncc(Br)cn2)c1-c1ccc(Br)cc1 [MCT, macitentan]
- tumor growth (tumor volume) (CT26 tumor; MCT 50 mg/kg orally daily, FIG. 17B): effectively retarded
